#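 A five-concentration, 48-hour dose response in 96-well plates underlies each endpoint, interpolated linearly between surrounding concentrations. Abbreviation: GI50, concentration required for 50% inhibition of growth. TGI is the concentration that stops growth completely.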
# Key:
# Assay in all cases: growth of human tumour cells (NCI), 48 h
# [1] = tested on: MDA-MB-435
# [2] = tested on: M14 melanoma
# [3] = tested on: OVCAR-8 ovarian
# [4] = tested on: SW-620 colon
# [5] = tested on: SF-268 CNS
# [6] = tested on: RPMI-8226 leukemia
# [7] = tested on: NCI-H522 lung
# [8] = tested on: SK-MEL-28 melanoma
# [9] = tested on: NCI/ADR-RES ovarian
# [10] = tested on: RXF 393 renal
# [11] = tested on: ACHN renal
# [12] = tested on: SNB-19 CNS
# [13] = tested on: T-47D breast
# [14] = tested on: SNB-75 CNS
# [15] = tested on: PC-3 prostate
# [16] = tested on: HT29 colon
# [17] = tested on: HL-60(TB) leukemia
# [18] = tested on: 786-0 renal
# [19] = tested on: CAKI-1 renal
# [20] = tested on: MDA-MB-231 breast
# [21] = tested on: NCI-H460 lung
# [22] = tested on: HCT-116 colon
# [23] = tested on: OVCAR-3 ovarian
# [24] = tested on: SK-MEL-2 melanoma
# [25] = tested on: HCC-2998 colon
# [26] = tested on: UO-31 renal
# [27] = tested on: NCI-H23 lung
# [28] = tested on: HOP-92 NSCLC
# [29] = tested on: TK-10 renal
# [30] = tested on: SF-539 CNS
# [31] = tested on: CCRF-CEM leukemia
# [32] = tested on: EKVX NSCLC
# [33] = tested on: DU-145 prostate
# [34] = tested on: UACC-257 melanoma
# [35] = tested on: U251 CNS
# [36] = tested on: SN12C renal
# [37] = tested on: HOP-62 NSCLC
# [38] = tested on: KM12 colon
# [39] = tested on: SK-OV-3 ovarian
# [40] = tested on: LOX IMVI melanoma
# [41] = tested on: MOLT-4 leukemia
# [42] = tested on: OVCAR-4 ovarian
# [43] = tested on: K-562 leukemia
# [44] = tested on: HS 578T breast
# [45] = tested on: SR leukemia
# [46] = tested on: HCT-15 colon
# [47] = tested on: IGROV1 ovarian
# [48] = tested on: SK-MEL-5 melanoma
# [49] = tested on: OVCAR-5 ovarian
# [50] = tested on: SF-295 CNS
# [51] = tested on: MCF7 breast
# [52] = tested on: UACC-62 melanoma
# [53] = tested on: A549 NSCLC
# [54] = tested on: COLO 205 colon
# [55] = tested on: NCI-H226 lung
# [56] = tested on: MDA-N
compound,measurement,setting,value
[CH3][Sn]([CH3])([CH3])[O][N+](=O)[O-],GI50,[1],5.93 µM
same,TGI,[1],> 10 µM
same,GI50,[2],6.33 µM
same,TGI,[2],> 10 µM
same,GI50,[3],3.6 µM
same,TGI,[3],> 10 µM
same,GI50,[4],2060 nM
same,TGI,[4],4.8 µM
same,GI50,[5],3.63 µM
same,TGI,[5],> 10 µM
same,GI50,[6],4.98 µM
same,TGI,[6],> 10 µM
same,GI50,[7],1640 nM
same,TGI,[7],3.07 µM
same,GI50,[8],> 10 µM
same,TGI,[8],> 10 µM
same,GI50,[9],2300 nM
same,TGI,[9],5.7 µM
same,GI50,[10],2190 nM
same,TGI,[10],9.73 µM
same,GI50,[11],> 10 µM
same,TGI,[11],> 10 µM
same,GI50,[12],> 10 µM
same,TGI,[12],> 10 µM
same,GI50,[13],4.09 µM
same,TGI,[13],> 10 µM
same,GI50,[14],> 10 µM
same,TGI,[14],> 10 µM
same,GI50,[15],> 10 µM
same,TGI,[15],> 10 µM
same,GI50,[16],5.8 µM
same,TGI,[16],> 10 µM
same,GI50,[17],4.03 µM
same,TGI,[17],> 10 µM
same,GI50,[18],1920 nM
same,TGI,[18],3.51 µM
same,GI50,[19],4.24 µM
same,TGI,[19],> 10 µM
same,GI50,[20],3.67 µM
same,TGI,[20],7.35 µM
same,GI50,[21],8.25 µM
same,TGI,[21],> 10 µM
same,GI50,[22],2900 nM
same,TGI,[22],> 10 µM
same,GI50,[23],5.06 µM
same,TGI,[23],> 10 µM
same,GI50,[24],5.1 µM
same,TGI,[24],> 10 µM
same,GI50,[25],> 10 µM
same,TGI,[25],> 10 µM
same,GI50,[26],> 10 µM
same,TGI,[26],> 10 µM
same,GI50,[27],5.02 µM
same,TGI,[27],> 10 µM
same,GI50,[28],3.39 µM
same,TGI,[28],> 10 µM
same,GI50,[29],> 10 µM
same,TGI,[29],> 10 µM
same,GI50,[30],2480 nM
same,TGI,[30],9.58 µM
same,GI50,[31],2190 nM
same,TGI,[31],6.9 µM
same,GI50,[32],> 10 µM
same,TGI,[32],> 10 µM
same,GI50,[33],> 10 µM
same,TGI,[33],> 10 µM
same,GI50,[34],6.81 µM
same,TGI,[34],> 10 µM
same,GI50,[35],1450 nM
same,TGI,[35],2770 nM
same,GI50,[36],1780 nM
same,TGI,[36],4.11 µM
same,GI50,[37],6.41 µM
same,TGI,[37],> 10 µM
same,GI50,[38],> 10 µM
same,TGI,[38],> 10 µM
same,GI50,[39],> 10 µM
same,TGI,[39],> 10 µM
same,GI50,[40],2520 nM
same,TGI,[40],6.63 µM
same,GI50,[41],3.2 µM
same,TGI,[41],> 10 µM
same,GI50,[42],2660 nM
same,TGI,[42],5.53 µM
same,GI50,[43],2630 nM
same,TGI,[43],7.39 µM
same,GI50,[44],1730 nM
same,TGI,[44],> 10 µM
same,GI50,[45],1480 nM
same,TGI,[45],3.33 µM
same,GI50,[46],2000 nM
same,TGI,[46],4.13 µM
same,GI50,[47],2390 nM
same,TGI,[47],> 10 µM
same,GI50,[48],1520 nM
same,TGI,[48],2970 nM
same,GI50,[49],6.73 µM
same,TGI,[49],> 10 µM
same,GI50,[50],9.92 µM
same,TGI,[50],> 10 µM
same,GI50,[51],2870 nM
same,TGI,[51],> 10 µM
same,GI50,[52],3.91 µM
same,TGI,[52],> 10 µM
same,GI50,[53],> 10 µM
same,TGI,[53],> 10 µM
same,GI50,[54],> 10 µM
same,TGI,[54],> 10 µM
same,GI50,[55],3.5 µM
same,TGI,[55],7.39 µM
same,GI50,[56],5.14 µM
same,TGI,[56],> 10 µM

# From PubChem BioAssay (NCI)
